Results from publication PMC11449996 (Clinical Pharmacokinetics, 2024).
Converted amounts (≈) assume the structure as drawn. Read-outs that look alike come from different tables or passages of the source.

Columns and labels:
[1] = Population pharmacokinetic model of dalbavancin; format: in vivo, patients
[2] = tested on: C-reactive protein (C-RP) production; format: in vivo, patients
staphylococci = conditions: cited from earlier work
MRSA = conditions: bloodstream infection isolates, 72 US and European medical centers; cited from earlier work
[3] = tested on: Staphylococcus epidermidis; conditions: bloodstream infection isolates, 72 US and European medical centers; cited from earlier work
[4] = cited from earlier work
[5] = cited from earlier work; remark: listed apart in the source
hepatic cytochromes = conditions: ref 13; cited from earlier work
[6] = median of 1000 non-parametric bootstrap iterations
[7] = population estimate, final PK/PD model

CN[C@H]1C(=O)N[C@@H]2Cc3ccc(cc3)Oc3cc4cc(c3O[C@@H]3O[C@H](C(=O)O)[C@@H](O)[C@H](O)[C@H]3NC(=O)CCCCCCCCC(C)C)Oc3ccc(cc3Cl)[C@@H](O)[C@@H]3NC(=O)[C@H](NC(=O)[C@@H]4NC(=O)[C@@H](NC2=O)c2cc(cc(O)c2Cl)Oc2cc1ccc2O)c1ccc(O)c(c1)-c1c(O[C@H]2O[C@H](CO)[C@@H](O)[C@H](O)[C@@H]2O)cc(O)cc1[C@@H](C(=O)NCCCN(C)C)NC3=O [dalbavancin, Dalbavancin]
clearance ([1]; human, plasma, intravenous, 1500 mg): 0.75 mL/min
CL, non-renal clearance of dalbavancin, bootstrap median [1, 6]: 0.028 L/h
Q, bootstrap median [1, 6]: 0.04 L/h
V1, bootstrap median [1, 6]: 5.98 L
V2, bootstrap median [1, 6]: 9.08 L
β_eGFR, bootstrap median [1, 6]: 0.005
V1, volume of distribution of the central compartment [1, 7]: 5.93 L
V2, volume of distribution of the peripheral compartment [1, 7]: 9.55 L
β_eGFR, coefficient of eGFR when dalbavancin CL was scaled to eGFR ([1]; population estimate, final PK/PD model, eGFR by CKD-EPI): 0.0042
free IC50 on C-RP production ([2]; from total IC50 […] mg/L considering plasma protein binding of 93%): 0.05 µg/mL
IC50, bootstrap median [2, 6]: 0.58 µg/mL (≈ 0.319 µM)
kout, bootstrap median [2, 6]: 0.0038 h^–1
kout, elimination rate of C-RP concentration in plasma ([2]; population estimate, final PK/PD model, 211 C-RP plasma concentrations): 0.0037 h^–1
MIC90, value at which 90% of the wild-type strains are inhibited (staphylococci): 0.0625 µg/mL
MIC90 (MRSA): 0.03 µg/mL (≈ 0.0165 µM)
MIC90 [3]: 0.06 µg/mL (≈ 0.033 µM)
plasma protein binding ([4]; ref 13): 93–98%
plasma protein binding ([4]; ref 15): 93%
terminal half-life ([5]; intravenous route): 147 to 258 h
CL, population estimates of previous studies ([5]; ref 5, 25, 26): 0.043 to 0.057 L/h
V, population estimates of previous studies ([5]; ref 5, 25, 26): 15 to 15.9 L
administered dose excreted in urine ([5]; ref 13): up to 42%
drug–drug interactions (hepatic cytochromes): no clinically relevant drug–drug interactions
substrate of the hepatic cytochromes (hepatic cytochromes): not a substrate of the hepatic cytochromes
